Measured values: patent EP4144350B1, “TREATMENT OR PREVENTION OF VASCULAR MALFORMATION” (Universitätsmedizin Greifswald, priority 2021, dated 2023)

Assays:
CCM3^+/+ CI-huVECs = experiment: CyQuant cell proliferation assay combined with mutant allele frequencies, co-culture (wild-type cells); format: cell-based, human; details: six days
Experimental: Clonally expanded CI-huVEC lines with biallelic loss-of-function variants in the first coding exon of CCM3 have been described before or were established according to a published CRISPR/Cas9 genome editing protocol. Blood outgrowth endothelial cells (BOECs) were cultured in EGM-2 medium (Lonza, Basel, Switzerland) supplemented with 18 % FCS. With the approval of the local ethics committee (University Medicine Greifswald, Germany; No.: BB 047/14a), CCM1^-/- BOECs had been established previously from CCM1^+/- BOECs of a CCM1 mutation carrier with CRISPR/Cas9 genome editing. Mutant and wild-type ECs were co-cultured in 96-well plates under standard culture conditions with the indicated mutant-to-wild-type ratios. 2500 cells were seeded per well. The proliferation rate of mutant and wild-type ECs in monoculture was quantified with the CyQuant® Cell Proliferation Assay Kit (C7026, Thermo Fisher Scientific). To discriminate the proliferation rates of CCM3^+/+ and CCM3^-/- CI-huVEC in co-culture, the CyQuant® Cell Proliferation Assay results were combined with mutant allele frequencies that had been determined by amplicon deep sequencing. To analyse their sensitivity to apoptosis, mutant and wild-type ECs were seeded in 96-well plates with 15.000 cells per well, and treated with staurosporine ([…], Sigma-Aldrich, St. Louis, MO, USA) 24 h later. […]

CCM3^-/- CI-huVECs = experiment: Targeted RNA sequencing (apoptosis and cell death panel); format: cell-based, human; details: 10 µM, 24 h
Text: RNA was extracted using the PeqGold TriFast reagent (Peqlab-VWR, Radnor, PA, USA) and purified using the Direct-zol RNA MiniPrep Plus Kit (Zymo Research, Irvine, CA, USA). A Qubit 4.0 (Thermo Fisher Scientific) and the Qubit RNA BR Assay Kit (Q10211, Thermo Fisher Scientific) were used to measure RNA concentrations. RNA sample integrity was controlled on a 2100 Bioanalyzer using the RNA 6000 Nano Kit (Agilent, Santa Clara, CA, USA). A QIAseq Targeted Human Apoptosis and Cell Death RNA Panel (RHS-002Z, QIAGEN, Hilden, Germany) was used to prepare RNA sequencing libraries according to the manufacturer's instructions. After quality control with the High Sensitivity DNA Kit on a 2100 Bioanalyzer instrument (Agilent), the pooled libraries were sequenced on a MiSeq (Illumina) with 1x151 cycles. Differential gene expression of RNA sequencing data was carried out using the QIAseq Targeted RNA Primary and Secondary Analysis Tool (QIAGEN).

[1] = system: CCM1^-/- BOECs in co-culture with CCM1^+/- BOECs; experiment: Co-culture of patient-specific BOECs, frequency of second knockout allele; format: cell-based, human; details: 10 µM (Fig. 23)
Experimental: Clonally expanded CI-huVEC lines with biallelic loss-of-function variants in the first coding exon of CCM3 have been described before or were established according to a published CRISPR/Cas9 genome editing protocol. Blood outgrowth endothelial cells (BOECs) were cultured in EGM-2 medium (Lonza, Basel, Switzerland) supplemented with 18 % FCS. With the approval of the local ethics committee (University Medicine Greifswald, Germany; No.: BB 047/14a), CCM1^-/- BOECs had been established previously from CCM1^+/- BOECs of a CCM1 mutation carrier with CRISPR/Cas9 genome editing. Mutant and wild-type ECs were co-cultured in 96-well plates under standard culture conditions with the indicated mutant-to-wild-type ratios. 2500 cells were seeded per well.
The fraction of mutant alleles in co-culture were analysed by amplicon deep sequencing or T7EI cleavage assay. In brief, genomic target regions were first amplified by PCR. For T7E1 cleavage assays, heteroduplexes were formed and digested with T7EI enzyme (New England Biolabs, Frankfurt am Main, Germany). Cleavage products were visualised by gel electrophoresis and analysed with the Image Lab software (v6.0, Bio-Rad, Hercules, CA, USA). For NGS analysis, sequencing adapters and individual barcodes were introduced in a second round of PCR [7]. […] The data were analysed with the SeqNext software (JSI Medical Systems, Ettenheim, Germany).

[2] = system: CCM3^-/- cells in fusion organoids; experiment: hiPSC-derived vascular fusion organoids, fluorescence imaging; format: cell-based, human; details: 10 µM, continuous culture, imaged day 5, 7, 10
Experimental: hiPSCs were differentiated into vascular organoids according to the protocol of Wimmer and colleagues. Briefly, 800,000 hiPSCs were seeded in ultra-low attachment 6-well plates (Corning) in aggregation medium for 2 days until aggregates had formed. On day 0, mesodermal induction was initiated with CHIR99021 (Tocris Bioscience, Bristol, United Kingdom) and BMP-4 (Miltenyi Biotec) in N2B27 medium. Supplementation of VEGF-A (PeproTech, Inc., Rocky Hill, NJ, USA) and forskolin (Sigma-Aldrich) on day 3 induced vascular differentiation. On day 5, vascular aggregates were embedded in a collagen I-Matrigel matrix. VEGF-A, FGF-2 (Miltenyi Biotec), and FBS (Thermo Fisher Scientific) enriched StemPro-34 medium (Thermo Fisher Scientific) was added for vessel sprouting. Vascular network extraction was performed on day 10.

human tumour cell lines = details: cited from earlier work

For CN1CCN(C(=O)/C=C/c2ccc([N+](=O)[O-])o2)CC1 [NSC59984, (E)-1-(4-methylpiperazin-1-yl)-3-(5-nitrofuran-2yl)prop-2-en-1-one], the “Proliferation rate of wild-type ECs” value (CCM3^+/+ CI-huVECs; 10 µM) was 295%, the “Proliferation rate of wild-type ECs” value (CCM3^+/+ CI-huVECs; starting value of the decrease, concentration not printed (by parallel 1 µM)) was 761% and the “Expression of CDKN1A (p21), FC (fold change NSC59984 vs. DMSO treatment)” value (CCM3^-/- CI-huVECs) was 2.33. The “Expression of GADD45A, FC (fold change NSC59984 vs. DMSO treatment)” value (CCM3^-/- CI-huVECs) was 2.11, the “Expression of apoptosis-related p53 target genes BBC3 (PUMA) or PMAIP1 (Noxa)” value (CCM3^-/- CI-huVECs) was “unaffected” and the “Expansion of CCM1^-/- BOECs in co-culture” value [1] was “significantly blocked the expansion of CCM1^-/- BOECs”. The “Proliferation of CCM3^-/- cells in fusion organoids” value [2] was “inhibited the proliferation of CCM3^-/- cells in fusion organoids”, the “Cell growth of tumour cell lines” value (human tumour cell lines) was “reduce cell growth in various human tumour cell lines” and the “Genotoxic effects on normal cells” value (human tumour cell lines) was “minimal genotoxic effects on normal cells”.
